Test results taken from US9359298B2, “Cajanine structure analogous compound, preparation method and use” (INSTITUTE OF MEDICINAL BIOTECHNOLOGY, CHINESE ACADEMY OF …, priority 2011, dated 2016).
Converted amounts (≈) assume the structure as drawn. Where two headings read alike, the source gives them in different places.

Columns and labels:
[1] = tested on: Influenza A virus (hanfang359/95); test: Determination of anti-influenza virus activity (CPE in MDCK cells); type: cell-based; conditions: for IC50: Influenza A virus, MDCK, 36 h; for anti-influenza virus activities compared with the lead compound cajanine: statement in words
Coxsackie virus B6 = test: Coxsackie virus activity assay (CPE in Vero cells); type: cell-based; conditions: for IC50: Vero, read-out: COX-B6 IC50, Vero cells, about 100TCID50, CPE, Reed-Muench
PC12 cells [2] = test: Neuroprotective activity assay, rotenone injury to PC12 cells (MTT); type: cell-based; conditions: for viability at 10 µM: Rattus norvegicus, PC-12, 48 h, read-out: rotenone (surviving PC12 cells, MTT 570 nm)
Procedure, shortened: (§1)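 PC12 cells on poly-lysine plated 24 h, then injured 48 h by serum-free DMEM or 4 μM rotenone with 10 μM test compound present during injury. Viability read by MTT (4 h), absorbance 570 nm.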

HIV-1 III B virus = test: Anti-HIV activity assay (P24 antigen in MT-4 cells); type: cell-based; conditions: for IC50: Human immunodeficiency virus 1, MT4, 96 h, read-out: HIV IC50; for anti-HIV viral activity: statement in words
PC12 cells [3] = test: Neuroprotective activity assay, serum-deprived injury to PC12 cells (MTT); type: cell-based; conditions: for viability at 10 µM: Rattus norvegicus, PC-12, 48 h, read-out: serum-deprived (surviving PC12 cells, MTT 570 nm)
Procedure, shortened: as §1

ovariectomized rats = test: Protective effect on bone osteoporosis in ovariectomized rats; type: in vivo; conditions: compared with raloxifene
Excerpt: The present invention also relates to anti-osteoporotic effect of said compounds. According to literature reports, pigeonpea stilbene-type compounds belong to phytoestrogens, the anti-osteoporosis effect of natural products has to do with their estrogen-like effects.

HCV = test: Anti-hepatitis C virus (HCV) activity assay (HCV RNA in Huh7.5 cells); type: cell-based; conditions: for EC50: Hepatitis C virus, Huh7.5, 72 h, read-out: HCV EC50; for anti-HCV viral activity: statement in words
Method: Inoculate Huh7.5 cells into 96-well plates to a density of 3×10^4 cells/cm^2, culture for 24h, infect the cells with 45 IU/cell HCV supernatant, meanwhile, add drug solutions or solvent control for treatment.

[4] = 10 μM test compound, 4 μM rotenone, 48 h, Control 100.0 ± 8.9, Model 73.2 ± 7.8
[5] = 10 μM test compound, 48 h, Control 100.0 ± 9.2, Model 69.3 ± 4.1
[6] = MT-4 cells, HIV-1 III B 100TCID50, 96 h, P24 antigen
[7] = Huh7.5 cells, 72 h, HCV RNA by RT-PCR, Reed-Muench

| Structure (SMILES) | IC50 [1] | IC50 (Coxsackie virus B6) | viability at 10 µM (PC12 cells [2]; [4]) | viability at 10 µM (PC12 cells [3]; [5]) | IC50 (HIV-1 III B virus; [6]) | EC50 (HCV; [7]) | further results |
| --- | --- | --- | --- | --- | --- | --- | --- |
| COc1cc(/C=C/c2ccccc2)c(C(=O)O)c(O)c1CC=C(C)C [Compound 1, 2-hydroxy-3-isopentenyl-4-methoxy-6-[(E)-styryl]benzoic acid] | 8.9 µg/mL (≈ 26.3 µM) | 0.9 µg/mL (≈ 2.66 µM) | 72.3 ± 5.9% | 19.3 ± 1.6% |  |  | IC50 (HIV-1 III B virus): 0.27 µg/mL (≈ 0.798 µM); anti-HIV viral activity (HIV-1 III B virus): stronger anti-HIV, HCV viral activities; in vivo anti-osteoporotic effect (ovariectomized rats): stronger in vivo anti-osteoporotic effect than clinical drug raloxifene; EC50 (HCV): 1.21 µg/mL (≈ 3.58 µM); anti-HCV viral activity (HCV): stronger anti-HIV, HCV viral activities |
| COc1cc(C=C2CCC(C)CC2)c(C(=O)O)c(O)c1CC=C(C)C (stereo not drawn) [Compound 1n, 2-hydroxy-3-isopentenyl-4-methoxy-6-(4′-methyl-cyclohexylenemethyl)benzoic acid] |  |  |  |  |  |  | Influenza A virus (hanfang359/95) IC50 [1]: >6.17 µg/mL; COX-B6 IC50 (Coxsackie virus B6): >0.69 µg/mL; rotenone (surviving PC12 cells, MTT 570 nm) (PC12 cells [2]; [4]): 62.9 ± 2.7; HIV IC50 (HIV-1 III B virus; [6]): 0.99 µg/mL; serum-deprived (surviving PC12 cells, MTT 570 nm) (PC12 cells [3]; [5]): 17.3 ± 2.4; HCV EC50 (HCV; [7]): 2.61 µg/mL |
| COc1cc(/C=C/Cc2ccccc2)cc(OC)c1 [Compound 21a, 1,3-dimethoxy-5-[(E)-3-phenylpropen-1-yl]benzene] | 1.32 µg/mL (≈ 5.19 µM) | 4.23 µg/mL (≈ 16.6 µM) | 80.5 ± 2.3% | 81.2 ± 2.4% | 1.1 µg/mL (≈ 4.33 µM) | 2.83 µg/mL (≈ 11.1 µM) |  |
| COc1cc(/C=C/c2cccc(C)c2)cc(O)c1CC=C(C)C [Compound 10f, 2-isopentenyl-3-methoxy-5-[(E)-3′-methylstyryl]phenol] | 0.89 µg/mL (≈ 2.89 µM) | 1.26 µg/mL (≈ 4.09 µM) | 76.5 ± 8% | 74.5 ± 6.5% | 0.46 µg/mL (≈ 1.49 µM) | 0.87 µg/mL (≈ 2.82 µM) | anti-influenza virus activities compared with the lead compound cajanine [1]: significantly stronger than the lead compound cajanine |
| COc1cccc(/C=C/c2cc(OC)c(CC=C(C)C)c(O)c2C(=O)O)n1 [1b′, 2-hydroxy-3-isopentenyl-4-methoxy-6-[(E)-2-(6-methoxypyrid-2-yl)ethenyl]benzoic acid] | 4.62 µg/mL (≈ 12.5 µM) | 5.98 µg/mL (≈ 16.2 µM) | 87.2 ± 6.31% | 88.9 ± 1.9% | 3.19 µg/mL (≈ 8.64 µM) | 0.88 µg/mL (≈ 2.38 µM) | anti-HIV viral activity (HIV-1 III B virus): stronger anti-HIV, HCV viral activities; anti-HCV viral activity (HCV): stronger anti-HIV, HCV viral activities |
| COC(=O)c1c(/C=C/C2CCCCC2)cc(OC)c(CC=C(C)C)c1O [Compound 8p, methyl 2-hydroxy-3-isopentenyl-4-methoxy-6-[(E)-2-cyclohexyl-vinyl]benzoate] | 10.3 µg/mL (≈ 28.9 µM) | > 2.06 µg/mL | 84.6 ± 5.9% | 82.3 ± 5.6% | 21.1 µg/mL (≈ 58.9 µM) | 11.4 µg/mL (≈ 31.7 µM) | protective effect on rotenone injury to PC12 cells (PC12 cells [2]; statement in words): the strongest activities; protective effect on serum-deprived injury to PC12 cells (PC12 cells [3]; statement in words): the strongest activities |
| COc1cc(/C=C/c2ccccc2)c(C(=O)n2ccnc2)c(O)c1CC=C(C)C [Compound 22, (E)-(2-hydroxy-3-isopentenyl-4-methoxy-6-styrylphenyl)(1H-imidazol-1-yl)ketone] | 1.25 µg/mL (≈ 3.22 µM) | 2.37 µg/mL (≈ 6.1 µM) | 85.6 ± 1.6% | 87.8 ± 2.9% | 0.35 µg/mL (≈ 0.901 µM) | 0.68 µg/mL (≈ 1.75 µM) |  |
| COc1cc(/C=C/c2ccccn2)c(C(=O)O)c(O)c1CC=C(C)C [Compound 1t, 2-hydroxy-3-isopentenyl-4-methoxy-6-[(E)-2-(pyrid-2-yl)ethenyl]benzoic acid] | 0.34 µg/mL (≈ 1 µM) | 0.61 µg/mL (≈ 1.8 µM) | 84.6 ± 1.2% | 85.1 ± 2.1% | 1.07 µg/mL (≈ 3.15 µM) | 1.58 µg/mL (≈ 4.66 µM) | anti-influenza virus activities compared with the lead compound cajanine [1]: significantly stronger than the lead compound cajanine |
| COc1cc(/C=C/c2cc(O)c(O)c(O)c2)cc(OC)c1 [Compound 21j, 1,3-dimethoxy-5-[(E)-3,4,5-trihydroxystyryl]benzene] | 0.98 µg/mL (≈ 3.4 µM) | 1.34 µg/mL (≈ 4.65 µM) | 75.6 ± 4.6% | 69.3 ± 2.5% | 1.04 µg/mL (≈ 3.61 µM) | 1.33 µg/mL (≈ 4.61 µM) |  |
| Oc1cc(O)cc(/C=C/c2ccc(O)c(O)c2)c1 [Compound 21e, 1,3-dihydroxy-5-[(E)-3,4-dihydroxystyryl]benzene] | 2.38 µg/mL (≈ 9.74 µM) | 4.86 µg/mL (≈ 19.9 µM) | 87.4 ± 2.5% | 85.6 ± 4.2% | 6.33 µg/mL (≈ 25.9 µM) | 2.06 µg/mL (≈ 8.43 µM) |  |
